Earlier results in publication PMC10723152 (Proceedings of the National Academy of Sciences of the …, 2023).

Tested on: cynomolgus macaques
Details: adult male cynomolgus macaques, 2 Gy sublethal whole-body irradiation

Q: Which hematopoietic recovery does the source give for “recombinant hGH: recombinant human Growth Hormone, biologic compared from the authors' previous work” here?
A: enhanced hematopoietic recovery
